In brackets after ≈: the same amount, converted by molar mass.
Experiments:
physchem [1] = conditions: octan-1-ol/water
in vitro [2] = conditions: SD, HW or BN, rat, plasma
in vitro [3] = conditions: hepatocytes
in vitro [4] = conditions: human
in vitro [5] = conditions: human, plasma, PPB
physchem [6] = conditions: pH 7.4 buffer

Compound	logD (physchem [1]; pH 7.4, LogD7.4)	fraction unbound at 5 h (in vitro [2])	hepatocyte CLint (in vitro [3]) [µL/min/1e6 cells]	microsomal CLint (in vitro [4]; liver microsomes) [µL/min/mg]	fraction unbound at 5 h (in vitro [5])	microsomal CLint (in vitro [4]; microsomes) [µL/min/mg]	logD (physchem [1]; pH 7.4)	solubility thermodynamic (physchem [6]) [µM]
N#C[C@]1(NC(=O)[C@@H](N)Cc2cccs2)C[C@H]1c1ccccc1	1.5	0.294	136	41				
CN(CCCOCCOCCc1ccccc1)CCc1ccc(O)c2nc(O)sc12		0.24	> 150	35	0.0988			
O=c1[nH]c2c(O)ccc([C@@H](O)CN[C@H]3CCC[C@@H]3OCc3ccccc3)c2s1		0.179	108		0.069	26		
O=C(c1ccccc1)N1CCC2(CCN(Cc3cccc(Cl)c3)CC2)CC1		0.166	< 3			5		
Cc1cccc(CN2CCC3(CC2)CCN(C(=O)c2ccccc2)CC3)c1		0.46	10.2	13.5				
COc1ccccc1CN1C(=O)c2ccccc2C1C(=O)NC1CCC(C)CC1 (stereo unspecified)		0.0968	> 150	> 150			3.74	
COc1cc2nnc(C(N)=O)c(Nc3ccc(F)cc3F)c2cc1N1CCN(C)CC1	2.36	0.157	16		0.0948	33		
COc1ccnc(CCc2nc3ncccc3[nH]2)c1	1.69	0.309	18.9	< 3				
CSCCC(NC(=O)c1ccccc1)c1nc2ccccc2n1Cc1ccc(C#N)cc1 (stereo unspecified)	4.24	0.0245	> 150	> 150				
COc1cccc2sc(NC(=O)c3ccccc3)nc12		0.0101	16	74			3.96	
CC(C(=O)OC1CC[N+](C)(C)CC1)(c1ccccc1)N1CCC(F)(F)CC1 (stereo unspecified)		0.624	38			41		
CN(C)C(C)(C(=O)OC1CC[N+](C)(C)CC1)c1ccccc1 (stereo unspecified)		0.454	16			< 3		
Cc1ccc(S(=O)(=O)Nc2c(C(=O)N[C@@H](C)C(C)(C)C)c(C)nn2C2CCCC2)cc1	2	0.0268	8		0.0214	21		
O=C(Nc1nc2ccccc2[nH]1)c1ccccc1		0.126	> 150	64				
Cc1c(Cl)ccc(OC2CCN(CC3CCN([C@@H](Cc4ccc(F)cc4)C(=O)O)CC3)CC2)c1Cl		0.232	13.8	< 3	0.0374			
Cc1cn([C@H]2CCCN([C@@H](CC(C)C)c3ccc(C(=O)O)c(Oc4cccc(Cl)c4)c3)C2)c(=O)[nH]c1=O	0.93	0.016	9.55		0.0111			
CC(C)(CCCCCOCCc1ccccc1)NCCc1ccc(O)c2nc(O)sc12	2.92	0.0229	93			48.7		
CC1(C)[C@@H]2CC[C@@]1(CS(=O)(=O)N1CCN(c3ccc(C(F)(F)F)cn3)CC1)C(=O)C2		0.0191	141	51	0.0092			
O=C(CC12CC3CC(CC(C3)C1)C2)Nc1cccc2c(=O)n(C(CO)CO)ccc12	2.62	0.117	19	42				
O=C(Nc1cccc(Cl)c1)c1ccccn1	3.4	0.0488	> 150					
COc1cc(NC(=O)c2ccccn2)ccc1Cl		0.0447	> 150					
CCc1c2c(nc3ccc(O)cc13)-c1cc3c(c(=O)n1C2)COC(=O)[C@]3(O)CC [7-ETHYL-10-HYDROXYCAMPTOTHECIN]	1.6	0.0948	24			25.1		
CCc1cc2c(cc1N1CCC(N3CCOCC3)CC1)C(C)(C)c1[nH]c3cc(C#N)ccc3c1C2=O [ALECTINIB]		0.5	5.01					
COCC1=C(C(=O)O)N2C(=O)[C@@H](NC(=O)/C(=N\OC)c3csc(N)n3)[C@H]2SC1 [CEFPODOXIME]		0.454	< 3		0.465			
C[C@@H]1C[C@H]2[C@@H]3CCC4=CC(=O)C=C[C@]4(C)[C@@]3(F)[C@@H](O)C[C@]2(C)[C@@]1(O)C(=O)CO [DEXAMETHASONE]	1.87	0.126	31		0.285			141 (≈ 55.5 µg/mL)
CCc1cnn2c(NCc3ccc[n+]([O-])c3)cc(N3CCCC[C@H]3CCO)nc12 [DINACICLIB]		0.176	> 150		0.0988	> 150		
Cc1nc(-c2ccc(OCC(C)C)c(C#N)c2)sc1C(=O)O [FEBUXOSTAT]	0.94	0.0052	12.7			< 3		
CCOc1ccc(NC(C)=O)cc1 [PHENACETIN]	1.5		26.9	24.6	0.651			

Further lines, results first:

logD (physchem [1]; pH 7.4, LogD7.4)	fraction unbound at 5 h (in vitro [2])	hepatocyte CLint (in vitro [3]) [µL/min/1e6 cells]	microsomal CLint (in vitro [4]; liver microsomes) [µL/min/mg]	fraction unbound at 5 h (in vitro [5])	microsomal CLint (in vitro [4]; microsomes) [µL/min/mg]	logD (physchem [1]; pH 7.4)	solubility thermodynamic (physchem [6]) [µM]	Compound
	0.0633	123						O=C(CN1CCOCC1)Nc1ccc(-c2cccc3c(=O)cc(N4CCOCC4)oc23)cc1-c1ccccc1
		53.7	> 150	0.0409			1.3 (≈ 0.665 µg/mL)	Cc1ccc(CO)cc1N(c1ccnc(Nc2cc(N3CCOCC3)cc(S(C)(=O)=O)c2)n1)C(C)C
	0.0017	51			4		3.2 (≈ 1.07 µg/mL)	Cc1ccccc1/N=N/c1ccc(NC(=O)c2ccnn2C)c(C)c1
4.05	0.0075	70						Cc1ccc(C(NC(=O)c2ccccc2O)C(=O)Nc2c(C)cccc2C)s1 (stereo unspecified)
3.36	0.089	21			< 3			Cc1ccc(C(=O)NC2CC2)cc1-c1ccc(C(=O)NCC2CC2)nc1
2.3		10		0.0036	5.5		51.3 (≈ 26.9 µg/mL)	Cc1cc(OCCCS(C)(=O)=O)cc(C)c1-c1cccc(COc2ccc3c(c2)OC[C@H]3CC(=O)O)c1
0.79	0.0234	47.9	54.5					CCC(CC)NC(=O)c1cnn(-c2ccccc2)c1NS(=O)(=O)c1ccc(C)cc1
1.9	0.0066	40	> 150					Cc1ccc(S(=O)(=O)Nc2c(C(=O)NCc3ccccc3)cnn2-c2ccccc2)cc1
0.27	0.0499	9.95	< 3					CCC(CC)NC(=O)c1cnn(-c2ccccn2)c1NS(=O)(=O)c1ccc(C)cc1
	0.051	51	12					Cc1ccc(S(=O)(=O)Nc2c(C(=O)NC(C)C)c(C)nn2-c2ccccc2)cc1
1.94	0.0224	17	58	0.0066				Cc1ccc(S(=O)(=O)Nc2c(C(=O)NC3CCCCC3C)c(C)nn2-c2ccccc2)cc1 (stereo unspecified)
	0.16	10	9					Cc1nn(-c2ccccc2)c(NS(=O)(=O)c2cccc(CN3CCOCC3)c2)c1C(=O)N[C@@H](C)C(C)(C)C
0.25	0.258	4			< 3			Cc1ccc(S(=O)(=O)Nc2c(C(=O)N[C@@H](C)C(C)(C)C)c(C)nn2C2CCS(=O)(=O)CC2)cc1
3.5		23.4	24.6	0.0111			10.7 (≈ 4.63 µg/mL)	COc1ccc2c(Oc3ccc(CC(=O)Nc4cn(C)nc4C)c(OC)c3)ccnc2c1
1.41		20		0.371	< 3		63.1 (≈ 21.9 µg/mL)	CC(C)(C)NS(=O)(=O)c1cncc(-c2ccc3nc(N)nn3c2)c1
3.7	0.0366	74.1	< 3					Cc1nocc1C(=O)Nc1ccc(-c2ccccc2OC(F)(F)F)c(N)n1
3.7	0.0293	20		0.0477				CCOc1ccc(-n2c([C@@H](C)N(Cc3cccnc3)C(=O)Cc3ccc(OC(F)(F)F)cc3)nc3ncccc3c2=O)cc1
	0.0082	29			7			O=C(NC1CC1)c1cn(-c2cccc(C#Cc3cccnc3)c2)c2ncccc2c1=O
3.49	0.0391	29	< 3					C[C@H](CO)n1ccc2c(NC(=O)Cc3ccc(Cl)c(C(F)(F)F)c3)cccc2c1=O
1.38		149		0.465	< 3		355 (≈ 94.6 µg/mL)	O=C(Nc1ccc(F)cc1)c1ccc(Cl)[n+]([O-])c1
2.4		4.79	6.17	0.194				CS(=O)(=O)c1ccc(-c2cnc(N)c(-c3ccc(C(F)(F)F)nc3)c2)cc1 [MMV-048]
1.17		12		0.232	5.5		851 (≈ 275 µg/mL)	CNCc1ccc(-c2[nH]c3cc(F)cc4c3c2CCNC4=O)cc1 [RUCAPARIB]
1.6		< 3	5.13	0.392				NC(=O)c1ccc(N(C(N)=O)c2c(F)cccc2F)nc1-c1ccc(F)cc1F [VX-702]

From ChEMBL document CHEMBL3301361, “Experimental in vitro DMPK and physicochemical data on a set of publicly disclosed compounds”
